Source: PubChem BioAssay AID2060325 (Molecular Pharmacology Branch, DTP, NCI, 2025)
Values joined by “and” are separate entries in the source; they are usually repeats but may differ in a detail not shown here. Identical values can stand only once.

Tested on: SK-OV-3 multi-cell spheroids, viability
Experiment: Anticancer human tumor SK-OV-3 cell line growth inhibition [IpAb];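 for viability, T/C: viability read after seven days of drug exposure; percent of DMSO vehicle control luminescence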
Conditions: for viability, T/C: stronger effect = lower value
Procedure, shortened: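 Combinations with ipatasertib or abemaciclib were tested on tumour spheroids holding HUVEC (25%) and MSC (15%) alongside 60% malignant cells. Top concentration was at or near clinical Cmax (10 microM if undefined), descending in half-log steps.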

[1] = curve of first compound, second compound 0.1 µM
[2] = curve of first compound, second compound 0.316 µM
[3] = curve of first compound, second compound 1 µM
[4] = curve of first compound, second compound 3.16 µM
[5] = curve of first compound, second compound 10 µM
[6] = second compound 0.1 µM, first compound 0.0316 µM
[7] = second compound 0.1 µM, first compound 0.1 µM
[8] = second compound 0.316 µM, first compound 0.0316 µM
[9] = second compound 0.316 µM, first compound 0.1 µM
[10] = second compound 1 µM, first compound 0.0316 µM
[11] = second compound 1 µM, first compound 0.1 µM
[12] = second compound 3.16 µM, first compound 0.0316 µM
[13] = second compound 3.16 µM, first compound 0.1 µM
[14] = second compound 10 µM, first compound 0.0316 µM
[15] = second compound 10 µM, first compound 0.1 µM

Question: What does the source list for `CC(=O)c1c(C)c2cnc(Nc3ccc(N4CCNCC4)cn3)nc2n(C2CCCC2)c1=O` + CC(C)NCC(C(=O)N1CCN(c2ncnc3c2C(C)CC3O)CC1)c1ccc(Cl)cc1?
Answer: IC50 [1]: 9.88 nM; IC50 [2]: < 0.949 nM; IC50 [3]: < 0.949 nM; IC50 [4]: < 0.949 nM; IC50 [5]: < 0.949 nM; viability, T/C (second compound 0.1 µM, first compound 0.000949 µM): 70.5%; viability, T/C (second compound 0.1 µM, first compound 0.003 µM): 62.3%; viability, T/C (second compound 0.1 µM, first compound 0.00949 µM): 50.6%; viability, T/C (second compound 0.1 µM, first compound 0.03 µM): 40.2%; viability, T/C (second compound 0.1 µM, first compound 0.0949 µM): 35.8%; viability, T/C (second compound 0.1 µM, first compound 0.3 µM): 34.2%; viability, T/C (second compound 0.316 µM, first compound 0.000949 µM): 36.3%; viability, T/C (second compound 0.316 µM, first compound 0.003 µM): 32.9%; viability, T/C (second compound 0.316 µM, first compound 0.00949 µM): 28%; viability, T/C (second compound 0.316 µM, first compound 0.03 µM): 25.6%; viability, T/C (second compound 0.316 µM, first compound 0.0949 µM): 23.9%; viability, T/C (second compound 0.316 µM, first compound 0.3 µM): 26.2%; viability, T/C (second compound 1 µM, first compound 0.000949 µM): 20.3%; viability, T/C (second compound 1 µM, first compound 0.003 µM): 18.3%; viability, T/C (second compound 1 µM, first compound 0.00949 µM): 17.6%; viability, T/C (second compound 1 µM, first compound 0.03 µM): 14.7%; viability, T/C (second compound 1 µM, first compound 0.0949 µM): 15.9%; viability, T/C (second compound 1 µM, first compound 0.3 µM): 18.5%; viability, T/C (second compound 3.16 µM, first compound 0.000949 µM): 16.5%; viability, T/C (second compound 3.16 µM, first compound 0.003 µM): 14.7%; viability, T/C (second compound 3.16 µM, first compound 0.00949 µM): 14.1%; viability, T/C (second compound 3.16 µM, first compound 0.03 µM): 15.6%; viability, T/C (second compound 3.16 µM, first compound 0.0949 µM): 13.4%; viability, T/C (second compound 3.16 µM, first compound 0.3 µM): 13.5%; viability, T/C (second compound 10 µM, first compound 0.000949 µM): 9.94%; viability, T/C (second compound 10 µM, first compound 0.003 µM): 9.77%; viability, T/C (second compound 10 µM, first compound 0.00949 µM): 8.83%; viability, T/C (second compound 10 µM, first compound 0.03 µM): 8.26%; viability, T/C (second compound 10 µM, first compound 0.0949 µM): 10.6%; viability, T/C (second compound 10 µM, first compound 0.3 µM): 10.5%

Question: `Cn1ncc(Cl)c1-c1cc(C(=O)NC(CN)Cc2cccc(F)c2)sc1Cl` (centres undefined) + CC(C)NCC(C(=O)N1CCN(c2ncnc3c2C(C)CC3O)CC1)c1ccc(Cl)cc1 was tested. Which IC50 [1] did it give?
Answer: The IC50 was 58.8 nM.

Question: What about the IC50 [2] of the same molecule?
Answer: The IC50 was under 31.6 nM.

Question: What about the IC50 [3] of the same molecule?
Answer: Its IC50 is under 31.6 nM.

Question: And the IC50 [4]?
Answer: Its IC50 is under 31.6 nM.

Question: What about the IC50 [5] of the same molecule?
Answer: The IC50 was under 31.6 nM.

Question: What about the viability, T/C [6] of the same molecule?
Answer: The viability, T/C was 62.6%.

Question: And the viability, T/C [7]?
Answer: The viability, T/C was 38.1%.

Question: What about the viability, T/C (second compound 0.1 µM, first compound 0.316 µM) of the same molecule?
Answer: The viability, T/C was 25%.

Question: What about the viability, T/C (second compound 0.1 µM, first compound 1 µM) of the same molecule?
Answer: The viability, T/C was 16.4%.

Question: What about the viability, T/C (second compound 0.1 µM, first compound 3.16 µM) of the same molecule?
Answer: The viability, T/C was 8.41%.

Question: And the viability, T/C (second compound 0.1 µM, first compound 10 µM)?
Answer: Its viability, T/C is 0.21%.

Question: What about the viability, T/C [8] of the same molecule?
Answer: Its viability, T/C is 36.4%.

Question: And the viability, T/C [9]?
Answer: Its viability, T/C is 28.2%.

Question: And the viability, T/C (second compound 0.316 µM, first compound 0.316 µM)?
Answer: The viability, T/C was 19.7%.

Question: What about the viability, T/C (second compound 0.316 µM, first compound 1 µM) of the same molecule?
Answer: Its viability, T/C is 13.8%.

Question: What about the viability, T/C (second compound 0.316 µM, first compound 3.16 µM) of the same molecule?
Answer: Its viability, T/C is 8.71%.

Question: And the viability, T/C (second compound 0.316 µM, first compound 10 µM)?
Answer: Its viability, T/C is 0.38%.

Question: And the viability, T/C [10]?
Answer: Its viability, T/C is 20.7%.

Question: What about the viability, T/C [11] of the same molecule?
Answer: Its viability, T/C is 18.3%.

Question: What about the viability, T/C (second compound 1 µM, first compound 0.316 µM) of the same molecule?
Answer: The viability, T/C was 17.6%.

Question: And the viability, T/C (second compound 1 µM, first compound 1 µM)?
Answer: The viability, T/C was 13.6%.

Question: And the viability, T/C (second compound 1 µM, first compound 3.16 µM)?
Answer: The viability, T/C was 8.68%.

Question: And the viability, T/C (second compound 1 µM, first compound 10 µM)?
Answer: The viability, T/C was 0.2%.

Question: And the viability, T/C [12]?
Answer: Its viability, T/C is 15.7%.

Question: What about the viability, T/C [13] of the same molecule?
Answer: The viability, T/C was 15.9%.

Question: What about the viability, T/C (second compound 3.16 µM, first compound 0.316 µM) of the same molecule?
Answer: Its viability, T/C is 15.9%.

Question: And the viability, T/C (second compound 3.16 µM, first compound 1 µM)?
Answer: The viability, T/C was 12.9%.

Question: And the viability, T/C (second compound 3.16 µM, first compound 3.16 µM)?
Answer: Its viability, T/C is 6.61%.

Question: And the viability, T/C (second compound 3.16 µM, first compound 10 µM)?
Answer: The viability, T/C was 0.36%.

Question: And the viability, T/C [14]?
Answer: Its viability, T/C is 10.6%.

Question: And the viability, T/C [15]?
Answer: Its viability, T/C is 11.4%.

Question: And the viability, T/C (second compound 10 µM, first compound 0.316 µM)?
Answer: The viability, T/C was 9.32%.

Question: What about the viability, T/C (second compound 10 µM, first compound 1 µM) of the same molecule?
Answer: Its viability, T/C is 6.87%.

Question: And the viability, T/C (second compound 10 µM, first compound 3.16 µM)?
Answer: Its viability, T/C is 4.93%.

Question: What about the viability, T/C (second compound 10 µM, first compound 10 µM) of the same molecule?
Answer: Its viability, T/C is 0.28%.

Question: `COc1c(OCCCN2CCOCC2)ccc2c3n(c(=NC(=O)c4cnc(N)nc4)nc12)CCN3` was tested. Which viability, T/C (compound 0.00316 µM) did it give?
Answer: Its viability, T/C is 92.7% and 89.1%.

Question: And the viability, T/C (compound 0.01 µM)?
Answer: The viability, T/C was 44.2% and 46.4%.

Question: What about the viability, T/C (compound 0.0316 µM) of the same molecule?
Answer: The viability, T/C was 11.5% and 12.2%.

Question: What about the viability, T/C (compound 0.1 µM) of the same molecule?
Answer: Its viability, T/C is 7.4% and 8.86%.

Question: What about the viability, T/C (compound 0.316 µM) of the same molecule?
Answer: Its viability, T/C is 6.39% and 5.98%.

Question: What about the viability, T/C (compound 1 µM) of the same molecule?
Answer: Its viability, T/C is 4.6% and 3.86%.

Question: What about the IC50 (curve of compound) of the same molecule?
Answer: Its IC50 is 8.71 nM and 9.06 nM.

Question: How did the viability, T/C (compound 0.0316 µM) turn out when `C=CCn1c(=O)c2cnc(Nc3ccc(N4CCN(C)CC4)cc3)nc2n1-c1cccc(C(C)(C)O)n1` was run?
Answer: Its viability, T/C is 89.6% and 97.2%.

Question: And the viability, T/C (compound 0.1 µM)?
Answer: Its viability, T/C is 64.6% and 59.2%.

Question: What about the viability, T/C (compound 0.316 µM) of the same molecule?
Answer: The viability, T/C was 13.3% and 15.5%.

Question: And the viability, T/C (compound 1 µM)?
Answer: The viability, T/C was 8.1% and 7.49%.

Question: What about the viability, T/C (compound 3.16 µM) of the same molecule?
Answer: The viability, T/C was 4.13% and 4.87%.

Question: What about the viability, T/C (compound 10 µM) of the same molecule?
Answer: Its viability, T/C is 6.98% and 5.63%.

Question: What about the IC50 (curve of compound) of the same molecule?
Answer: The IC50 was 139 nM and 128 nM.

Question: How did the viability, T/C (compound 0.01 µM) turn out when `CCN1CCN(Cc2ccc(Nc3ncc(F)c(-c4cc(F)c5nc(C)n(C(C)C)c5c4)n3)nc2)CC1` was run?
Answer: The viability, T/C was 87.1% [middle of 13 runs].

Question: And the viability, T/C (compound 0.0316 µM)?
Answer: The viability, T/C was 71.2% [middle of 13 runs].

Question: What about the viability, T/C (compound 0.1 µM) of the same molecule?
Answer: Its viability, T/C is 54.8% [middle of 13 runs].

Question: And the viability, T/C (compound 0.316 µM)?
Answer: Its viability, T/C is 53.6% [middle of 13 runs].

Question: And the viability, T/C (compound 1 µM)?
Answer: Its viability, T/C is 43.7% [middle of 13 runs].

Question: Which results are given for `Cn1ncnc1[C@H]1c2n[nH]c(=O)c3cc(F)cc(c23)N[C@@H]1c1ccc(F)cc1` + CC(C)NCC(C(=O)N1CCN(c2ncnc3c2C(C)CC3O)CC1)c1ccc(Cl)cc1?
Answer: IC50 [1]: > 100 nM; IC50 [2]: < 0.316 nM; IC50 [3]: < 0.316 nM; IC50 [4]: < 0.316 nM; IC50 [5]: < 0.316 nM; viability, T/C (second compound 0.1 µM, first compound 0.000316 µM): 74.2%; viability, T/C (second compound 0.1 µM, first compound 0.001 µM): 78.8%; viability, T/C (second compound 0.1 µM, first compound 0.00316 µM): 60.9%; viability, T/C (second compound 0.1 µM, first compound 0.01 µM): 69.4%; viability, T/C [6]: 65.4%; viability, T/C [7]: 58.8%; viability, T/C (second compound 0.316 µM, first compound 0.000316 µM): 34.5%; viability, T/C (second compound 0.316 µM, first compound 0.001 µM): 39.5%; viability, T/C (second compound 0.316 µM, first compound 0.00316 µM): 41.2%; viability, T/C (second compound 0.316 µM, first compound 0.01 µM): 38.4%; viability, T/C [8]: 38.3%; viability, T/C [9]: 33.2%; viability, T/C (second compound 1 µM, first compound 0.000316 µM): 22.9%; viability, T/C (second compound 1 µM, first compound 0.001 µM): 21.5%; viability, T/C (second compound 1 µM, first compound 0.00316 µM): 20.5%; viability, T/C (second compound 1 µM, first compound 0.01 µM): 20.4%; viability, T/C [10]: 20.9%; viability, T/C [11]: 19%; viability, T/C (second compound 3.16 µM, first compound 0.000316 µM): 19%; viability, T/C (second compound 3.16 µM, first compound 0.001 µM): 17.1%; viability, T/C (second compound 3.16 µM, first compound 0.00316 µM): 15.1%; viability, T/C (second compound 3.16 µM, first compound 0.01 µM): 15.4%; viability, T/C [12]: 12.8%; viability, T/C [13]: 16.1%; viability, T/C (second compound 10 µM, first compound 0.000316 µM): 10.3%; viability, T/C (second compound 10 µM, first compound 0.001 µM): 10.1%; viability, T/C (second compound 10 µM, first compound 0.00316 µM): 10.3%; viability, T/C (second compound 10 µM, first compound 0.01 µM): 9.69%; viability, T/C [14]: 8.59%; viability, T/C [15]: 9.45%
